Source: patent publication US12011444B2, “N-substituted indole derivatives as PGE2 receptor modulators” (Idorsia Pharmaceuticals Ltd, priority 2015, dated 2024)

Assays:
[1] = biological target: PTGER2 (EP2) (Homo sapiens (Human), UniProt P43116); test: hEP2 b-arrestin assay (PathHunter HEK 293 PTGER2 b-arrestin cells); type: cell-based
Outline: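 HEK293 cells expressing ProLink-tagged EP2 and EA-fused β-arrestin 2 (enzyme fragment complementation) were seeded 24 h, pre-incubated with compound 15 min at 37 °C, then stimulated with 5 μM PGE2 (final) for 120 min.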

[2] = biological target: PTRGER4 (EP4) (Homo sapiens (Human), UniProt P35408); test: hEP4 b-arrestin assay (PathHunter HEK 293 PTGER4 b-arrestin cells); type: cell-based
Outline: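 Stably transfected HEK293 cells carrying EP4–ProLink and β-arrestin 2–EA (β-gal fragment complementation), pre-incubated with compound 15 min at 37 °C, then stimulated with PGE2 (20 nM final) for 120 min at 37 °C. Chemiluminescence read after 1 h detection reagent at room temperature; activity per concentration expressed as percent of DMSO control.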

[3] = antagonistic activity on hEP2, mean where measured multiple times
[4] = antagonistic activity on hEP4, mean where measured multiple times
[5] = hEP2 b-arrestin assay (values without asterisk)
[6] = hEP4 b-arrestin assay (values without asterisk)

Chain of PTRGER4 (EP4) (P35408 whole entry, looked up, the tested form may be a part): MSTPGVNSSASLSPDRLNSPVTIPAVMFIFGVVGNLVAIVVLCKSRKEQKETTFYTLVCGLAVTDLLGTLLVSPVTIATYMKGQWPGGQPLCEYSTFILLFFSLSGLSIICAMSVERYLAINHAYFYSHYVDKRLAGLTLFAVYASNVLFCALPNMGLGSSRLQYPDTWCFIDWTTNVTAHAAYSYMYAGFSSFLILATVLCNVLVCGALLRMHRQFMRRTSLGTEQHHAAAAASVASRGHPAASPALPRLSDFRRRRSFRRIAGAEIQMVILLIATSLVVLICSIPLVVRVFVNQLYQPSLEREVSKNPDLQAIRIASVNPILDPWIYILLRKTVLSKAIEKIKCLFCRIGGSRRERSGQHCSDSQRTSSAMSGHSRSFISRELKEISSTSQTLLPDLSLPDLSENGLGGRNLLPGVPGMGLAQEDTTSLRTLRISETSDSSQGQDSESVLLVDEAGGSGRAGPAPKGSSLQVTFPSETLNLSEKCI
Chain of PTGER2 (EP2) (P43116 whole entry, the tested form may be a part): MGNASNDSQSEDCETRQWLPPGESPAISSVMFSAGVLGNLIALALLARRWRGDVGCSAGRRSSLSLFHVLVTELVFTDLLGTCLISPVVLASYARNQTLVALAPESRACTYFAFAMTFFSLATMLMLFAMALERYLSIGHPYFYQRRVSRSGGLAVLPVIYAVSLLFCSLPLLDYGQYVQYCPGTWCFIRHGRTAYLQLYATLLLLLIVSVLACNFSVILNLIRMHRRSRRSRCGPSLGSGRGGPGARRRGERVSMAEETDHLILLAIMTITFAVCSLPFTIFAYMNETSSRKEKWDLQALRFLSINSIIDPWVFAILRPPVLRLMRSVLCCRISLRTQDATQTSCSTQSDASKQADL

Structure (SMILES) | IC50 [1, 3] [µM] | IC50 [2, 4] [µM] | IC50 [1, 5] [µM] | IC50 [2, 6] [µM]
COc1ccc(F)c2c1cc(C)n2CCNc1cc(-c2ccc(-c3nnc[nH]3)cc2)ncn1 [compound 208, [2-(7-Fluoro-4-methoxy-2-methyl-indol-1-yl)-ethyl]-{6-[4-(4H-[1,2,4]triazol-3-yl)-phenyl]-pyrimidin-4-yl}-amine] | 0.011 | 0.102 |  | 
COc1ccc(F)c2c1cc(C)n2CCNc1cc(-c2ccc3c(c2)CNC3=O)ncn1 [compound 90, 5-{6-[2-(7-Fluoro-4-methoxy-2-methyl-indol-1-yl)-ethylamino]-pyrimidin-4-yl}-2,3-dihydro-isoindol-1-one] | 0.007 | 0.461 |  | 
CCC1NC(=O)c2ccc(-c3cc(NCCn4c(C)cc5c(OC)ccc(F)c54)ncn3)cc21 (racemic) [compound 319] | 0.01 | 0.296 |  | 
COc1cccc2c1cc(C)n2CCNc1cc(-c2ccc(-c3ccn[nH]3)cc2)ncn1 [compound 75, [2-(4-Methoxy-2-methyl-indol-1-yl)-ethyl]-{6-[4-(2H-pyrazol-3-yl)-phenyl]-pyrimidin-4-yl}-amine] | 0.007 | 0.095 |  | 
Cc1ccc(F)c2c1cc(C#N)n2CCNc1cc(-c2cc(F)c(C(=O)O)s2)ncn1 [Example 851, 5-{6-[2-(2-Cyano-7-fluoro-4-methyl-indol-1-yl)-ethylamino]-pyrimidin-4-yl}-3-fluoro-thiophene-2-carboxylic acid] |  |  | 0.018 | 0.028
CCSc1cc(C(=O)O)cc(-c2cc(NCCn3c(C#N)cc4c(OC)ccc(F)c43)ncn2)c1 [Example 922, 3-{6-[2-(2-Cyano-7-fluoro-4-methoxy-indol-1-yl)-ethylamino]-pyrimidin-4-yl}-5-ethylsulfanyl-benzoic acid] |  |  | 0.019 | 0.019
COc1cc(F)cc2c1cc(C)n2CCNc1cc(-c2cc(Cl)c(C(=O)O)c(Cl)c2)ncn1 [compound 291] | 0.041 | 0.104 |  | 
COc1cccc2c1cc(C)n2CCNc1cc(-c2ccc(Cn3cccn3)c(F)c2)ncn1 [compound 308] | 0.383 | 0.429 |  | 
Cc1ccc(F)c2c1cc(C)n2CCNc1cc(-c2ccc(C(=O)O)cc2)ncn1 [compound 15, 4-{6-[2-(7-Fluoro-2,4-dimethyl-indol-1-yl)-ethylamino]-pyrimidin-4-yl}-benzoic acid] | 0.062 | 0.542 |  | 
COc1n[nH]c2cc(-c3cc(NCCn4c(C#N)cc5c(OC)ccc(F)c54)ncn3)ccc12 [Example 918, 7-Fluoro-4-methoxy-1-{2-[6-(3-methoxy-1H-indazol-6-yl)-pyrimidin-4-ylamino]-ethyl}-1H-indole-2-carbonitrile] |  |  | 0.026 | 0.073
CCC1NC(=O)c2ccc(-c3cc(NCCn4c(C)cc5c(OC)cccc54)ncn3)cc21 (racemic) [compound 196] | 0.012 | 0.224 |  | 
CCc1cccc2c1cc(C)n2CCNc1cc(-c2ccc(C(=O)O)c(CC(C)C)c2)ncn1 [compound 327] | 0.482 | 0.629 |  | 
COc1ccc(F)c2c1cc(C)n2CCNc1cc(-c2cc(O)c(C(=O)O)s2)ncn1 [Example 799, 5-{6-[2-(7-Fluoro-4-methoxy-2-methyl-indol-1-yl)-ethylamino]-pyrimidin-4-yl}-3-hydroxy-thiophene-2-carboxylic acid] |  |  | 0.021 | 0.059
Cc1cc(F)c(F)c2c1cc(C)n2CCNc1cc(-c2ccc3c(c2)CC(=O)N3)ncn1 [compound 93] | 0.183 | 0.475 |  | 
CCOc1cc(-c2cc(NCCn3c(C)cc4c(OC)ccc(F)c43)ncn2)[nH]c1C(=O)O [Example 1014, 3-Ethoxy-5-{6-[2-(7-fluoro-4-methoxy-2-methyl-indol-1-yl)-ethylamino]-pyrimidin-4-yl}-1H-pyrrole-2-carboxylic acid] |  |  | 0.007 | 0.351
CCCc1cc(-c2cc(NCCn3c(C)cc4cc(C)cc(Cl)c43)ncn2)cc(Cl)c1C(=O)O [compound 335] | 0.056 | 0.468 |  | 
CCOc1cc(-c2cc(NCCn3c(C#N)cc4c(OC)ccc(F)c43)ncn2)sc1C(=O)N(C)C [Example 1025, 5-{6-[2-(2-Cyano-7-fluoro-4-methoxy-indol-1-yl)-ethylamino]-pyrimidin-4-yl}-3-ethoxy-thiophene-2-carboxylic acid dimethylamide] |  |  | 0.033 | 0.006
Cc1ccc(F)c2c1cc(C)n2CCNc1cc(-c2ccc(C(N)=O)cc2)ncn1 [compound 25, 4-{6-[2-(7-Fluoro-2,4-dimethyl-indol-1-yl)-ethylamino]-pyrimidin-4-yl}-benzamide] | 0.027 | 0.616 |  | 

Structure (SMILES) | IC50 [1, 3] [µM] | IC50 [2, 4] [µM] | IC50 [1, 5] [µM] | IC50 [2, 6] [µM]
CCOc1cc(-c2cc(NCCn3c(C#N)cc4c(OC)ccc(F)c43)ncn2)ccc1-c1nnn[nH]1 [Example 803, 1-(2-{6-[3-Ethoxy-4-(1H-tetrazol-5-yl)-phenyl]-pyrimidin-4-ylamino}-ethyl)-7-fluoro-4-methoxy-1H-indole-2-carbonitrile] |  |  | 0.01 | 0.004
COc1cc(F)cc2c1cc(C)n2CCNc1cc(-c2cc(F)c(C(=O)O)s2)ncn1 [compound 113] | 0.008 | 0.057 |  | 
COc1cccc2c1cc(C)n2CCNc1cc(-c2ccc(-c3noc(C)n3)cc2)ncn1 [compound 179, [2-(4-Methoxy-2-methyl-indol-1-yl)-ethyl]-{6-[4-(5-methyl-[1,2,4]oxadiazol-3-yl)-phenyl]-pyrimidin-4-yl}-amine] | 0.02 | 0.88 |  | 
Cc1ccc(F)c2c1cc(C)n2CCNc1cc(-c2ccc(N)cc2)ncn1 [compound 1, [6-(4-Amino-phenyl)-pyrimidin-4-yl]-[2-(7-fluoro-2,4-dimethyl-indol-1-yl)-ethyl]-amine] | 0.05 | 0.616 |  | 
COc1ccc(F)c2c1cc(C)n2CCNc1cc(-c2cc(C(F)(F)F)c(-c3noc(=O)[nH]3)s2)ncn1 [Example 1062, 3-(5-{6-[2-(7-Fluoro-4-methoxy-2-methyl-indol-1-yl)-ethylamino]-pyrimidin-4-yl}-3-trifluoromethyl-thiophen-2-yl)-[1,2,4]oxadiazol-5(4H)-one] |  |  | 0.033 | 0.013
CCOc1cc(-c2cc(NCCn3c(C#N)cc4c(Cl)cc(Cl)cc43)ncn2)sc1C(=O)O [Example 889, 5-{6-[2-(4,6-Dichloro-2-cyano-indol-1-yl)-ethylamino]-pyrimidin-4-yl}-3-ethoxy-thiophene-2-carboxylic acid] |  |  | 0.001 | 0.035
CSc1cc(-c2cc(NCCn3c(C)cc4c(Cl)ccc(Cl)c43)ncn2)ccc1C(=O)O [compound 221] | 0.009 | 0.902 |  | 
CCOc1cc(-c2cc(NCCn3c(C)cc4c(F)ccc(F)c43)ncn2)ccc1C(=O)O [compound 154, 4-{6-[2-(4,7-Difluoro-2-methyl-indol-1-yl)-ethylamino]-pyrimidin-4-yl}-2-ethoxy-benzoic acid] | 0.001 | 0.628 |  | 
COc1ccc(F)c2c1cc(C#N)n2CCNc1cc(-c2ccc(-c3ncn(C)c3C)cc2)ncn1 [Example 823, 1-(2-{6-[4-(1,5-Dimethyl-1H-imidazol-4-yl)-phenyl]-pyrimidin-4-ylamino}-ethyl)-7-fluoro-4-methoxy-1H-indole-2-carbonitrile] |  |  | 0.005 | 0.005
COc1ccc(F)c2c1cc(C)n2CCNc1cc(-c2ccc(CO)c(F)c2)ncn1 [compound 28, (2-Fluoro-4-{6-[2-(7-fluoro-4-methoxy-2-methyl-indol-1-yl)-ethylamino]-pyrimidin-4-yl}-phenyl)-methanol] | 0.017 | 0.249 |  | 
CCOc1cc(-c2cc(NCCn3c(C)cc4c(Cl)cc(Cl)cc43)ncn2)sc1C(=O)O [compound 238] | 0.005 | 0.04 |  | 
CCCc1cc(-c2cc(NCCn3c(C)cc4c(C)ccc(F)c43)ncn2)ccc1C(=O)O [compound 147, 4-{6-[2-(7-Fluoro-2,4-dimethyl-indol-1-yl)-ethylamino]-pyrimidin-4-yl}-2-propyl-benzoic acid] | 0.016 | 0.109 |  | 
COc1ccc(F)c2c1cc(C#N)n2CCNc1cc(-c2ccnc(OC(F)F)c2)ncn1 [Example 1006, 1-{2-[6-(2-Difluoromethoxy-pyridin-4-yl)-pyrimidin-4-ylamino]-ethyl}-7-fluoro-4-methoxy-1H-indole-2-carbonitrile] |  |  | 0.131 | 0.45
COc1ccc(F)c2c1cc(C)n2CCNc1cc(-c2ccc(N)cc2)ncn1 [Example 4, [6-(4-amino-phenyl)-pyrimidin-4-yl]-[2-(7-fluoro-4-methoxy-2-methyl-indol-1-yl)-ethyl]-amine] | 0.022 | 0.412 |  | 
Cc1cc(Cl)cc2c1cc(C)n2CCNc1cc(-c2ccc(C(=O)O)c(OC(F)F)c2)ncn1 [compound 349, 4-{6-[2-(6-Chloro-2,4-dimethyl-indol-1-yl)-ethylamino]-pyrimidin-4-yl}-2-difluoromethoxy-benzoic acid] | 0.026 | 0.301 |  | 
COc1ccc(F)c2c1cc(C)n2CCNc1cc(-c2ccc3[nH]cnc3c2)ncn1 [compound 57, [6-(1H-Benzoimidazol-5-yl)-pyrimidin-4-yl]-[2-(7-fluoro-4-methoxy-2-methyl-indol-1-yl)-ethyl]-amine] | 0.016 | 0.113 |  | 
COc1cccc2c1cc(C)n2CCNc1cc(-c2ccc(CO)c(Cl)c2)ncn1 [compound 16, (2-Chloro-4-{6-[2-(4-methoxy-2-methyl-indol-1-yl)-ethylamino]-pyrimidin-4-yl}-phenyl)-methanol] | 0.009 | 0.202 |  | 
